Measured values published in PubChem BioAssay (NCI).
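How tested: cells in 96-well plates exposed to compound for 48 hours at five concentrations. The concentration for full growth arrest is given as TGI.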

What was measured:
Test in all cases: DTP human tumour cell line panel, 48 h
NCI-H226 lung = tested on: NCI-H226 lung
HT29 colon = tested on: HT29 colon
IGROV1 ovarian = tested on: IGROV1 ovarian
HCC-2998 colon = tested on: HCC-2998 colon
KM20L2 colon = tested on: KM20L2 colon
SNB-19 CNS = tested on: SNB-19 CNS
786-0 renal = tested on: 786-0 renal
SR leukemia = tested on: SR leukemia
CAKI-1 renal = tested on: CAKI-1 renal
SW-620 colon = tested on: SW-620 colon
OVCAR-8 ovarian = tested on: OVCAR-8 ovarian
HOP-62 NSCLC = tested on: HOP-62 NSCLC
M14 melanoma = tested on: M14 melanoma
UO-31 renal = tested on: UO-31 renal
DMS 273 small cell lung = tested on: DMS 273 small cell lung
RXF 393 renal = tested on: RXF 393 renal
SK-MEL-5 melanoma = tested on: SK-MEL-5 melanoma
KM12 colon = tested on: KM12 colon
M19-MEL melanoma = tested on: M19-MEL melanoma
A549 NSCLC = tested on: A549 NSCLC
HL-60(TB) leukemia = tested on: HL-60(TB) leukemia
SK-MEL-2 melanoma = tested on: SK-MEL-2 melanoma
MOLT-4 leukemia = tested on: MOLT-4 leukemia
U251 CNS = tested on: U251 CNS
SK-OV-3 ovarian = tested on: SK-OV-3 ovarian
SNB-75 CNS = tested on: SNB-75 CNS
SN12C renal = tested on: SN12C renal
HOP-18 NSCLC = tested on: HOP-18 NSCLC
OVCAR-3 ovarian = tested on: OVCAR-3 ovarian
EKVX NSCLC = tested on: EKVX NSCLC
NCI-H522 lung = tested on: NCI-H522 lung
K-562 leukemia = tested on: K-562 leukemia
NCI-H23 lung = tested on: NCI-H23 lung
SNB-78 CNS = tested on: SNB-78 CNS
OVCAR-4 ovarian = tested on: OVCAR-4 ovarian
HCT-15 colon = tested on: HCT-15 colon
ACHN renal = tested on: ACHN renal
SF-295 CNS = tested on: SF-295 CNS
SK-MEL-28 melanoma = tested on: SK-MEL-28 melanoma
HCT-116 colon = tested on: HCT-116 colon
LXFL 529 NSCLC = tested on: LXFL 529 NSCLC
CCRF-CEM leukemia = tested on: CCRF-CEM leukemia
OVCAR-5 ovarian = tested on: OVCAR-5 ovarian
UACC-257 melanoma = tested on: UACC-257 melanoma
DLD-1 colon = tested on: DLD-1 colon
RPMI-8226 leukemia = tested on: RPMI-8226 leukemia
SF-268 CNS = tested on: SF-268 CNS
MALME-3M melanoma = tested on: MALME-3M melanoma
SF-539 CNS = tested on: SF-539 CNS
DMS 114 small cell lung = tested on: DMS 114 small cell lung
NCI-H460 lung = tested on: NCI-H460 lung
COLO 205 colon = tested on: COLO 205 colon
HOP-92 NSCLC = tested on: HOP-92 NSCLC
UACC-62 melanoma = tested on: UACC-62 melanoma
TK-10 renal = tested on: TK-10 renal
LOX IMVI melanoma = tested on: LOX IMVI melanoma
A498 renal = tested on: A498 renal
XF 498 CNS = tested on: XF 498 CNS
RXF-631 renal = tested on: RXF-631 renal

Measured: TGI

COC1OC(C)C(OCc2ccccc2)C(OS(=O)(=O)c2ccc(C)cc2)C1OS(=O)(=O)c1ccc(C)cc1 (configuration not stated)
not listed: HOP-92 NSCLC | UACC-62 melanoma | TK-10 renal | LOX IMVI melanoma | A498 renal | XF 498 CNS | RXF-631 renal
> 100 µM: all other assays above

CC(=O)N(C(C)=O)C1=C2c3ccccc3N(S(=O)(=O)c3ccccc3)C2n2c(=O)n(-c3ccccc3)c(=O)n2C1 (configuration not stated)
58.8 µM: SK-MEL-5 melanoma
47.5 µM: SK-MEL-2 melanoma
46.5 µM: MALME-3M melanoma
61.9 µM: EKVX NSCLC
58.2 µM: SK-MEL-28 melanoma
94.7 µM: M19-MEL melanoma
81.9 µM: OVCAR-3 ovarian
80.2 µM: COLO 205 colon
95.9 µM: NCI-H23 lung
51.3 µM: SNB-75 CNS
62.4 µM: HCC-2998 colon
63.3 µM: HL-60(TB) leukemia
73.9 µM: HOP-92 NSCLC
42.3 µM: NCI-H460 lung
39.5 µM: SR leukemia | NCI-H522 lung
81.3 µM: LOX IMVI melanoma
69.4 µM: M14 melanoma
40.2 µM: RPMI-8226 leukemia
86.4 µM: HOP-18 NSCLC
35.8 µM: UACC-62 melanoma
38.5 µM: SF-539 CNS
not listed: NCI-H226 lung | RXF 393 renal | MOLT-4 leukemia | SNB-78 CNS | OVCAR-4 ovarian | DMS 114 small cell lung | A498 renal | XF 498 CNS | RXF-631 renal
> 100 µM: all other assays above

COc1cccc(/C=C2\CCC(C)(CN(C)C)C2=O)c1 (configuration not stated)
68.1 µM: RPMI-8226 leukemia
91.6 µM: NCI-H522 lung
not listed: HL-60(TB) leukemia | SK-OV-3 ovarian | LXFL 529 NSCLC | CCRF-CEM leukemia | RXF-631 renal
> 100 µM: all other assays above

CCOC(=O)/C=C(\C)c1ccc(C)cc1C
28.6 µM: LXFL 529 NSCLC
37.8 µM: SW-620 colon
88.6 µM: HCT-15 colon
68.2 µM: RPMI-8226 leukemia
63.8 µM: HOP-92 NSCLC
37.3 µM: SR leukemia
11.9 µM: HL-60(TB) leukemia
27.7 µM: RXF 393 renal
43.2 µM: XF 498 CNS
51.8 µM: SK-MEL-28 melanoma
53.9 µM: MALME-3M melanoma
31.5 µM: DLD-1 colon
31.3 µM: LOX IMVI melanoma
not listed: 786-0 renal | HOP-62 NSCLC | M19-MEL melanoma | SK-OV-3 ovarian | OVCAR-3 ovarian | NCI-H522 lung | UACC-62 melanoma
> 100 µM: all other assays above

O=C1C2=C(c3ccccc31)C(c1ccccc1Cl)N1C(=O)CCSC1=N2 (configuration not stated)
not listed: SR leukemia | RXF 393 renal | HOP-18 NSCLC | SNB-78 CNS | LXFL 529 NSCLC | NCI-H460 lung | LOX IMVI melanoma
> 100 µM: all other assays above

Cc1cc(N(CCC#N)CCC#N)ccc1/C=C1N=C(/C=C/c2ccccc2)OC(=O)N\1
41.3 µM: SF-295 CNS
not listed: SR leukemia | HOP-18 NSCLC | OVCAR-4 ovarian | HOP-92 NSCLC | RXF-631 renal
> 100 µM: all other assays above

CC(C)c1ccccc1NC(=O)/C(Cl)=C1/Sc2ccccc2NC1=O
58.8 µM: RPMI-8226 leukemia
80.7 µM: MALME-3M melanoma
93.3 µM: HCC-2998 colon
53.4 µM: DMS 114 small cell lung
59.7 µM: KM20L2 colon
87.9 µM: SNB-75 CNS
52.6 µM: HL-60(TB) leukemia
79.8 µM: MOLT-4 leukemia
93.2 µM: A498 renal
74.6 µM: COLO 205 colon
57.7 µM: SF-539 CNS
66.6 µM: SK-OV-3 ovarian
78.8 µM: SK-MEL-5 melanoma
82.8 µM: CCRF-CEM leukemia
49.6 µM: RXF 393 renal
70.8 µM: NCI-H23 lung
51.8 µM: NCI-H522 lung
37.8 µM: SK-MEL-2 melanoma
not listed: HT29 colon | SR leukemia | DMS 273 small cell lung | KM12 colon | HOP-18 NSCLC | OVCAR-3 ovarian | SF-295 CNS | UACC-257 melanoma | XF 498 CNS
> 100 µM: all other assays above

CC(=O)O[C@]12CCCCCC1C1(O)C(O)CCC[C@H]12 (some centres not stated)
not listed: IGROV1 ovarian | HCC-2998 colon | CAKI-1 renal | OVCAR-3 ovarian | NCI-H522 lung | OVCAR-5 ovarian | DLD-1 colon | SF-539 CNS | HOP-92 NSCLC | A498 renal | RXF-631 renal
> 100 µM: all other assays above
